The text below walks through data of ChEMBL document CHEMBL1126296, “Orally active aldose reductase inhibitors: indazoleacetic, oxopyridazineacetic, and oxopyridopyridazineacetic acid derivatives” (J Med Chem, 1992).

For orientation: inhibition in vivo means the drop in the measured response relative to a control, in per cent. As a reminder, the IC50 is the concentration that gives 50% inhibition. High values mean a need for much substance, low ones inhibition by little substance.

Activity calls are given as the source filed them. The rule behind the calls is not given here.

Experiment [1] has as its system Rattus norvegicus. The experiment is described as follows: In vivo inhibition of sorbitol accumulation in sciatic nerve and lens of diabetic rat at a dose of 25 mg/kg. Type of experiment: functional.
Experiment [2] addresses Aldo-keto reductase family 1 member B1 (Homo sapiens, UniProt P15121). The experiment is described as follows: Inhibitory activity against aldose reductase isolated from human placenta.
Experiment [3] has as its system Rattus norvegicus. Description: In vivo inhibition of sorbitol accumulation in sciatic nerve and lens of diabetic rat at a dose of 10 mg/kg; NS=not significant. The arrangement: dose 10 mg/kg. The class given is functional, organism-based.
The test system of experiment [4] is Rattus norvegicus. Description: In vivo inhibition of sorbitol accumulation in sciatic nerve and lens of diabetic rat at a dose of 100 mg/kg. Type of experiment: functional.
For experiment [5], the system named is Rattus norvegicus. Description: In vivo inhibition of sorbitol accumulation in sciatic nerve and lens of diabetic rat at a dose of 10 mg/kg. Type of experiment: functional.
The test system of experiment [6] is Rattus norvegicus. The experiment is described as follows: In vivo inhibition of sorbitol accumulation in sciatic nerve and lens of diabetic rat at a dose of 25 mg/kg; NS=not significant. Type of experiment: functional, organism-based. The arrangement: dose 25 mg/kg.

As to `Cc1c(CC(=O)O)nn(Cc2nc3cc(C(F)(F)F)ccc3s2)c(=O)c1C`, in experiment [1], at 25 mg/kg the inhibition in vivo was 81%. In experiment [2], this compound returned an IC50 of 16 nM.
For `O=C(O)Cc1nn(Cc2nc3cc(F)cc(F)c3s2)c(=O)c2cccnc12` the same measures were 68% and 26 nM.
`Cc1c(CC(=O)O)nn(Cc2ccc(Br)cc2F)c(=O)c1C`: the inhibition result in experiment [3] was “inactive”. Besides, in experiment [2], half-maximal inhibition (IC50) required 290 nM.
Turning to `O=C(O)Cc1nn(Cc2nc3ccccc3s2)c(=O)c2cc3ccccc3cc12`, the IC50 in experiment [2] worked out at 46 nM. Also, in experiment [4], 100 mg/kg produced 48% inhibition in vivo.
As for `O=C(O)Cc1nn(Cc2nc3cc(F)ccc3s2)c2ccc(Cl)cc12`, the inhibition in vivo at 25 mg/kg in experiment [1] stood at 34%. The same compound showed an IC50 in experiment [2] of 4.6 nM.
For `O=C(O)Cc1nn(Cc2nc3cc(F)cc(F)c3s2)c2ccc(Cl)cc12` the same measures were 69% and 110 nM.
On to `O=C(O)Cc1nn(Cc2nc3cc(C(F)(F)F)ccc3s2)c(=O)c2c1CCCC2`, for which, in experiment [1], the inhibition in vivo at 25 mg/kg turned out to be 89%. Further, it took 5.2 nM to reach half-maximal inhibition in experiment [2] (IC50). In addition, the inhibition in vivo at 10 mg/kg in experiment [5] is 61%.
`O=C(O)Cc1nn(Cc2nc3ccccc3s2)c2ccccc12` had an inhibition in vivo at 25 mg/kg in experiment [1] of 52%. Moreover, the IC50 in experiment [2] was 680 nM. Besides, in experiment [4], the inhibition in vivo at 100 mg/kg was 77%.
On to `O=C(O)Cc1nn(Cc2ccc(Br)cc2F)c(=O)c2c1CCCC2`, for which testing at 25 mg/kg in experiment [1] gave an inhibition in vivo of 87%. Further, the IC50 in experiment [2] is 32 nM.
In turn, `O=C(O)Cc1nn(Cc2ccc(Br)cc2F)c2ccccc12` gave an IC50 in experiment [2] of 6200 nM.
With `O=C(O)Cc1nn(Cc2nc3cc(F)ccc3s2)c(=O)c2cccnc12`, the inhibition in vivo at 25 mg/kg in experiment [1] is 64%. In experiment [2], this compound yielded a half-inhibitory concentration (IC50) of under 10 nM.
Regarding `Cc1c(CC(=O)O)nn(Cc2nc3cc(F)cc(F)c3s2)c(=O)c1C`, in experiment [2], the IC50 was 5 nM. Also, the inhibition in vivo at 10 mg/kg in experiment [5] was 76%.
On to `O=C(O)Cc1ccc(=O)n(Cc2nc3cc(C(F)(F)F)ccc3s2)n1`, for which the IC50 in experiment [2] turned out to be 340 nM. For the same compound, in experiment [6], the inhibition result was “inactive”.
`O=C(O)Cc1nn(Cc2nc3cc(F)cc(F)c3s2)c(=O)c2c1CCCC2` had an IC50 in experiment [2] of 4 nM.
Same read-out and setting: under `O=C(O)Cc1nn(Cc2ccc(Br)cc2F)c(=O)c2cc3ccccc3cc12` stands 420 nM.
`O=C(O)Cc1nn(Cc2nc3cc(C(F)(F)F)ccc3s2)c2ccc(Cl)cc12` yielded an IC50 in experiment [2] of 35 nM. Besides, the inhibition result in experiment [6] was “inactive”.
For `O=C(O)Cc1nn(Cc2ccc(Br)cc2F)c(=O)c2ncccc12` the same measures were 760 nM and “inactive”.
In turn, `O=C(O)Cc1nn(Cc2nc3cc(C(F)(F)F)ccc3s2)c(=O)c2ccccc12` [ZOPOLRESTAT] came in with an inhibition in vivo at 10 mg/kg in experiment [5] of 80%.
In the case of `O=C(O)Cc1nn(Cc2nc3cc(F)cc(F)c3s2)c2ccccc12`, in experiment [1], the inhibition in vivo at 25 mg/kg was 61%. Further, the midpoint of inhibition in experiment [2], the IC50, lay at 30 nM.
The matching figures for `O=C(O)Cc1nn(Cc2nc3cc(Br)ccc3s2)c2ccc(Cl)cc12`: 56% and 65 nM.
For the compound `O=C(O)Cc1nn(Cc2nc3cc(C(F)(F)F)ccc3s2)c(=O)c2ncccc12`, in experiment [3], the inhibition entry is “inactive”. In addition, half-maximal inhibition in experiment [2] (IC50) was put at 2.1 nM.
Take `O=C(O)Cc1nn(Cc2nc3cc(C(F)(F)F)ccc3s2)c(=O)c2cccnc12`: the inhibition in vivo at 25 mg/kg in experiment [1] amounted to 74%. Further, the IC50 in experiment [2] came out at 41 nM.
For the compound `Cc1c(CC(=O)O)nn(Cc2nc(-c3cccc(F)c3F)no2)c(=O)c1C`, the concentration for half-maximal inhibition (IC50) in experiment [2] came out at 3.3 nM. Also, at 10 mg/kg the inhibition in vivo in experiment [5] was 26%.
As to `O=C(O)Cc1nn(Cc2nc3ccccc3o2)c2ccc(Cl)cc12`, the IC50 in experiment [2] was determined as 100 nM.
Take `O=C(O)Cc1ccc(=O)n(Cc2nc3cc(F)cc(F)c3s2)n1`: the inhibition in vivo at 25 mg/kg in experiment [1] worked out at 32%. In experiment [2], the IC50 was under 10 nM.
The matching figures for `O=C(O)Cc1nn(Cc2nc3cc(C(F)(F)F)ccc3s2)c2ccccc12`: 59% and 33 nM.
The compound `Cc1cc(=O)n(Cc2nc3cc(C(F)(F)F)ccc3s2)nc1CC(=O)O` gave a 50% inhibitory concentration (IC50) in experiment [2] of 18 nM. Besides, the inhibition entry in experiment [6] was “inactive”.
For the compound `O=C(O)Cc1nn(Cc2nc3ccccc3s2)c2ccc(Cl)cc12`, in experiment [3], the inhibition entry is “inactive”. 58 nM corresponded to half-maximal inhibition in experiment [2] (IC50).
Regarding `O=C(O)Cc1nn(Cc2nc3ccccc3s2)c(=O)c2ccccc12`, in experiment [1], the inhibition in vivo at 25 mg/kg turned out to be 67%.
